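The compound was tested at five concentrations on cells cultured in 96-well plates, with a 48-hour exposure period. Here, GI50 denotes the concentration required for 50% inhibition of growth.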 Calls of active or inactive are those of the source. Cut-off read from the data, not from the text of the source: active = GI50 up to about 1.1 µM and inactive = higher.
What was measured:
Assay in all cases: NCI-60 cell line screen, 48 h
786-0 = tested on: 786-0
A498 = tested on: A498
A549 = tested on: A549
ACHN = tested on: ACHN
BT-549 = tested on: BT-549
CAKI-1 = tested on: CAKI-1
CCRF-CEM = tested on: CCRF-CEM
DU-145 = tested on: DU-145
HCC 2998 = tested on: HCC 2998
HCT-116 = tested on: HCT-116
HCT-15 = tested on: HCT-15
HL-60 = tested on: HL-60
HOP-62 = tested on: HOP-62
HOP-92 = tested on: HOP-92
HT-29 = tested on: HT-29
Hs-578T = tested on: Hs-578T
IGROV-1 = tested on: IGROV-1
K562 = tested on: K562
KM12 = tested on: KM12
LOX IMVI = tested on: LOX IMVI
M14 = tested on: M14
MCF7 = tested on: MCF7
MDA-MB-231 = tested on: MDA-MB-231
MDA-N = tested on: MDA-N
MOLT-4 = tested on: MOLT-4
Malme-3M = tested on: Malme-3M
NCI-H226 = tested on: NCI-H226
NCI-H23 = tested on: NCI-H23
NCI-H460 = tested on: NCI-H460
NCI-H522 = tested on: NCI-H522
OVCAR-3 = tested on: OVCAR-3
OVCAR-4 = tested on: OVCAR-4
OVCAR-5 = tested on: OVCAR-5
OVCAR-8 = tested on: OVCAR-8
PC-3 = tested on: PC-3
RPMI-8226 = tested on: RPMI-8226
RXF 393 = tested on: RXF 393
SF-268 = tested on: SF-268
SF-295 = tested on: SF-295
SF-539 = tested on: SF-539
SK-MEL-28 = tested on: SK-MEL-28
SK-MEL-2 = tested on: SK-MEL-2
SK-MEL-5 = tested on: SK-MEL-5
SN12C = tested on: SN12C
SNB-19 = tested on: SNB-19
SNB-75 = tested on: SNB-75
SR = tested on: SR
SW-620 = tested on: SW-620
T47D = tested on: T47D
TK-10 = tested on: TK-10
U-251 = tested on: U-251
UACC-257 = tested on: UACC-257
UACC-62 = tested on: UACC-62
UO-31 = tested on: UO-31
COLO 205 = tested on: COLO 205
EKVX = tested on: EKVX
MDA-MB-435 = tested on: MDA-MB-435
NCI/ADR-RES = tested on: NCI/ADR-RES
SK-OV-3 = tested on: SK-OV-3

CCOP(=O)(OCC)C1CC(n2cc(C)c(=O)[nH]c2=O)OC1CO (centres undefined)
GI50 (786-0): > 100 µM (inactive)
GI50 (A498): > 100 µM (inactive)
GI50 (A549): > 100 µM (inactive)
GI50 (ACHN): > 100 µM (inactive)
GI50 (BT-549): > 100 µM (inactive)
GI50 (CAKI-1): > 100 µM (inactive)
GI50 (CCRF-CEM): > 100 µM (inactive)
GI50 (DU-145): > 100 µM (inactive)
GI50 (HCC 2998): > 100 µM (inactive)
GI50 (HCT-116): > 100 µM (inactive)
GI50 (HCT-15): > 100 µM
GI50 (HL-60): > 100 µM (inactive)
GI50 (HOP-62): > 100 µM (inactive)
GI50 (HOP-92): > 100 µM (inactive)
GI50 (HT-29): > 100 µM (inactive)
GI50 (Hs-578T): > 100 µM (inactive)
GI50 (IGROV-1): > 100 µM (inactive)
GI50 (K562): > 100 µM (inactive)
GI50 (KM12): > 100 µM (inactive)
GI50 (LOX IMVI): > 100 µM (inactive)
GI50 (M14): > 100 µM (inactive)
GI50 (MCF7): > 100 µM (inactive)
GI50 (MDA-MB-231): > 100 µM (inactive)
GI50 (MDA-N): > 100 µM (inactive)
GI50 (MOLT-4): > 100 µM (inactive)
GI50 (Malme-3M): > 100 µM (inactive)
GI50 (NCI-H226): > 100 µM (inactive)
GI50 (NCI-H23): 99.1 µM (inactive)
GI50 (NCI-H460): > 100 µM (inactive)
GI50 (NCI-H522): 83.8 µM (inactive)
GI50 (OVCAR-3): > 100 µM (inactive)
GI50 (OVCAR-4): > 100 µM (inactive)
GI50 (OVCAR-5): 83.4 µM (inactive)
GI50 (OVCAR-8): > 100 µM (inactive)
GI50 (PC-3): > 100 µM (inactive)
GI50 (RPMI-8226): > 100 µM (inactive)
GI50 (RXF 393): > 100 µM (inactive)
GI50 (SF-268): > 100 µM (inactive)
GI50 (SF-295): > 100 µM (inactive)
GI50 (SF-539): > 100 µM (inactive)
GI50 (SK-MEL-28): > 100 µM (inactive)
GI50 (SK-MEL-2): > 100 µM (inactive)
GI50 (SK-MEL-5): > 100 µM (inactive)
GI50 (SN12C): > 100 µM (inactive)
GI50 (SNB-19): > 100 µM (inactive)
GI50 (SNB-75): > 100 µM (inactive)
GI50 (SR): > 100 µM (inactive)
GI50 (SW-620): > 100 µM (inactive)
GI50 (T47D): > 100 µM (inactive)
GI50 (TK-10): > 100 µM (inactive)
GI50 (U-251): > 100 µM (inactive)
GI50 (UACC-257): > 100 µM (inactive)
GI50 (UACC-62): > 100 µM (inactive)
GI50 (UO-31): > 100 µM (inactive)

O=C(CCCn1ccnc1[N+](=O)[O-])NCCn1cnc([N+](=O)[O-])c1
GI50 (786-0): > 100 µM (inactive)
GI50 (A549): > 100 µM (inactive)
GI50 (ACHN): > 100 µM (inactive)
GI50 (BT-549): > 100 µM (inactive)
GI50 (CAKI-1): > 100 µM (inactive)
GI50 (CCRF-CEM): > 100 µM (inactive)
GI50 (COLO 205): > 100 µM (inactive)
GI50 (DU-145): > 100 µM (inactive)
GI50 (EKVX): > 100 µM (inactive)
GI50 (HCC 2998): > 100 µM (inactive)
GI50 (HCT-116): > 100 µM (inactive)
GI50 (HCT-15): > 100 µM
GI50 (HL-60): > 100 µM (inactive)
GI50 (HOP-62): > 100 µM (inactive)
GI50 (HT-29): > 100 µM (inactive)
GI50 (Hs-578T): > 100 µM (inactive)
GI50 (IGROV-1): > 100 µM (inactive)
GI50 (K562): > 100 µM (inactive)
GI50 (KM12): > 100 µM (inactive)
GI50 (LOX IMVI): > 100 µM (inactive)
GI50 (M14): > 100 µM (inactive)
GI50 (MCF7): > 100 µM (inactive)
GI50 (MDA-MB-435): > 100 µM (inactive)
GI50 (MDA-N): > 100 µM (inactive)
GI50 (MOLT-4): > 100 µM (inactive)
GI50 (Malme-3M): > 100 µM (inactive)
GI50 (NCI-H226): > 100 µM (inactive)
GI50 (NCI-H23): > 100 µM (inactive)
GI50 (NCI-H460): > 100 µM (inactive)
GI50 (NCI-H522): > 100 µM (inactive)
GI50 (NCI/ADR-RES): > 100 µM (inactive)
GI50 (OVCAR-3): > 100 µM (inactive)
GI50 (OVCAR-4): > 100 µM (inactive)
GI50 (OVCAR-5): > 100 µM (inactive)
GI50 (OVCAR-8): > 100 µM (inactive)
GI50 (PC-3): > 100 µM (inactive)
GI50 (RPMI-8226): > 100 µM (inactive)
GI50 (SF-268): > 100 µM (inactive)
GI50 (SF-295): > 100 µM (inactive)
GI50 (SF-539): > 100 µM (inactive)
GI50 (SK-MEL-28): > 100 µM (inactive)
GI50 (SK-MEL-2): > 100 µM (inactive)
GI50 (SK-MEL-5): > 100 µM (inactive)
GI50 (SK-OV-3): > 100 µM (inactive)
GI50 (SN12C): > 100 µM (inactive)
GI50 (SNB-19): > 100 µM (inactive)
GI50 (SNB-75): > 100 µM (inactive)
GI50 (SR): > 100 µM (inactive)
GI50 (SW-620): > 100 µM (inactive)
GI50 (T47D): > 100 µM (inactive)
GI50 (TK-10): > 100 µM (inactive)
GI50 (U-251): > 100 µM (inactive)
GI50 (UACC-257): > 100 µM (inactive)
GI50 (UACC-62): > 100 µM (inactive)
GI50 (UO-31): > 100 µM (inactive)
